Laboratory results: PMC5780498, “Discovery of novel bacterial topoisomerase I inhibitors by use of in silico docking and in vitro assays” (Scientific Reports, 2018)
≈ marks a conversion by molar mass, not a printed value. Like-named read-outs stand apart in the source and are kept apart here.

Test system: M. smegmatis clone overexpressing recombinant MtbTopI (M+ strain)
Experiment: microbe, parasite or virus in culture
Assay type: cell-based, Mycobacterium smegmatis
Settings: Mycolicibacterium smegmatis
[1] = 48 h, read-out: M+ Growth Inhibition (MIC)
[2] = read-out: M+ Growth Inhibition with TZ (MIC)

| SMILES | MIC [1] [µM] | MIC [2] [µM] |
| --- | --- | --- |
| Cc1ccc(CN2C[C@]34C=C[C@H](O3)C(C(=O)N3CCn5cccc5C3)C4C2=O)cc1C (stereo partly shown) [Compound 7] | > 500 | > 500 |
| Cc1ccc2oc(C(=O)N3CCC(O)(c4cccc(C(F)(F)F)c4)CC3)c(C)c2c1 [Compound 10] | > 500 | 46.9 (≈ 19.6 µg/mL) |
| Cc1c(C(=O)N2CCC(c3nnc(-c4nccc5ccccc45)o3)CC2)oc2ccccc12 [Compound 2] | > 250 | 62.5 (≈ 27.4 µg/mL) |
| COc1ccc2c(c1)NC1(CCN(C(=O)Cc3c[nH]c4ccccc34)CC1)NS2(=O)=O [Compound 3] | > 250 | 62.5 (≈ 27.5 µg/mL) |
| Cc1ccc2[nH]c(C3CCN(C(=O)c4oc5ccc(C)cc5c4C)CC3)nc2c1 [Compound 9] | > 500 | 31.3 (≈ 12.1 µg/mL) |
| Cc1cc2oc(C(=O)N3CCC(c4nc5ccccc5[nH]4)CC3)c(C)c2cc1C [Compound 8] | > 500 | 31.3 (≈ 12.1 µg/mL) |
| Cc1c(C(=O)N2CCCCC2CCc2ccc(O)cc2)oc2c(F)cccc12 (stereo not shown) [Compound 11] | > 500 | 125 (≈ 47.7 µg/mL) |
| Cc1ccc2c(C)c(C(=O)N3CCC4(CC(=O)c5ccccc5O4)C3)oc2c1 (stereo not shown) [Compound 12] | > 500 | > 500 |
